Reference: patent US5869524A, “Indene inhibitors of COX-2” (American Home Products Corporation, priority 1997, dated 1999)

Legend:
[1] = target: T1, rhCOX-2 (Homo sapiens, UniProt P35354); assay: Inhibition of rhCOX-2 (PGF2α by EIA, microsomal human recombinant enzyme); type: biochemical; settings: value in parentheses = IC50; 30 min preincubation, 30 μM arachidonic acid, 37° C., pH 7.8; read-out: % inh of rhCOX-2 (IC50)
T1 construct: made in house; host or cells: Sf9 or CHO cells (microsomal preparation)
T1 sequence (P35354 18-604): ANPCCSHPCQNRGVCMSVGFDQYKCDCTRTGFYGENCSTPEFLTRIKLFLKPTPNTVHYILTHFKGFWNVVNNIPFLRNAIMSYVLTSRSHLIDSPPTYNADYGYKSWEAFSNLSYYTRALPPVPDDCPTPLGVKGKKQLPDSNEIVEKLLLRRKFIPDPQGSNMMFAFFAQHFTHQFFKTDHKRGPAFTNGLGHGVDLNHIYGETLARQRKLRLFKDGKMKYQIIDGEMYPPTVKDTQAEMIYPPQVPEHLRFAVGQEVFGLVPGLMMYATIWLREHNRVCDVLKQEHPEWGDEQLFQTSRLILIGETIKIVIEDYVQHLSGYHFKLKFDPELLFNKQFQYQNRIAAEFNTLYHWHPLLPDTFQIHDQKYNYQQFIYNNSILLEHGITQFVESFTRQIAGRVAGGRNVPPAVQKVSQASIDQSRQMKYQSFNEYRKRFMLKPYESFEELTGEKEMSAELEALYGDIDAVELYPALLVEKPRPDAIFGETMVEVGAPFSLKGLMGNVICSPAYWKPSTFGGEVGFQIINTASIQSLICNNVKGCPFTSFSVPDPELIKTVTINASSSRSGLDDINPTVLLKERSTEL
Method: A representative compound of this invention was evaluated for inhibition of COX-2 and COX-1 enzymes as follows. Human COX-1 and COX-2 cDNAs were cloned from human monocytes, untreated and LPS-treated respectively, by RT-PCR using oligonucleotide primers based on published hCOX-1 and hCOX-2 sequences (Jones et al., J. Biol. Chem., 268, 9049 (1993)). The cDNAs were then transfected into either Sf9 or CHO cells and subsequently converted into a microsomal preparation as described by Glaser et al (Eur. J. Pharmacol. 281, 107-111 (1995)). The microsomal human recombinant enzymes were diluted with buffer (100 mM Tris, pH 7.8 at 37° C.) containing 0.5 mM phenol (964 μl total volume). The enzyme preparations were preincubated with vehicle (DMSO) or compounds in DMSO (1% DMSO in final assay) for 30 min at 37° C. Excess hematin was added 1 min prior to initiation of reaction ([…] final hematin) with 30 μM arachidonic acid (sodium salt). […]
The reaction was incubated for 35 sec (maximum level of PGH2 accumulation as determined from time course studies), and terminated by addition of […] of SnCl2 (1 mg/ml) in 0.1N HCl. PGH2 is quantitatively converted to PGF2a by this reaction (50% efficiency of total conversion). […] Combined ethyl acetate extracts were dried under N2 (g) and redissolved in EIA buffer (2.0 ml), and PGF2α was quantified by EIA.

[2] = system: COX-2; settings: cited from earlier work; for inhibition of COX-1 and COX-2, selectivity in words: literature
[3] = system: Alzheimer's disease; settings: Rogers et al. 1993; cited from earlier work
[4] = Futaki et al. 1993; cited from earlier work

For CSc1ccc(/C=C2/C(C)=C(CC(=O)C3=C(O)COC3=O)c3cc(F)ccc32)cc1 [Example 1, (Z)-3-[[5-Fluoro-2-methyl-1-[[4-(methylthio)phenyl]methylene]-1H-inden-3-yl]acetyl]-4-hydroxy-2(5H)-furanone], which IC50 [1] is on record?
Its IC50 is 27 nM.

Which “inhibition of COX-1 and COX-2, selectivity in words” value [2] does the source give for COc1ccc2c(c1)c(CC(=O)O)c(C)n2C(=O)c1ccc(Cl)cc1 [Indomethacin] here?
The value was “relatively non-selective inhibitor of COX-1 and COX-2”.

What about the “treatment of Alzheimer's disease” value [3] of the same compound?
The value was “useful in the treatment of Alzheimer's disease”.

With CS(=O)(=O)Nc1ccc([N+](=O)[O-])cc1OC1CCCCC1 [N-(2-cyclohexyloxy-4-nitrophenyl)methanesulfonamide] as the compound, how does the antiinflammatory effect [4] read?
The antiinflammatory effect was “effective antiinflammatory”.

What about the gastric side effects [4] of the same compound?
Its gastric side effects is “lacks gastric side effects”.

What about the “inhibition of COX-1 and COX-2, selectivity in words” value [2] of the same compound?
The value was “selective COX-2 inhibitor”.

For CCc1cccc2c3c([nH]c12)C(CC)(CC(=O)O)OCC3 (stereo not shown) [etodolac], which “selectivity for inhibition of COX-2” value ([2]; fold, reported by Glaser et al. 1995) is on record?
Its value is “tenfold”.
